# Measured values published in patent publication US20060257481A1, “Sustained release formulation and dosing schedule of leukotriene synthesis inhibitor for human therapy” (deCODE Genetics ehf., priority 2005, published 2006).
# Read-outs that look alike come from different tables or passages of the source.
# Legend:
# LTE4 in urine = test: Study DG-031-201: LTE4 in urine; assay type: in vivo, human
# Protocol: (§1) Patients who met the study eligebility criteria were enrolled and randomized into 3 different dose-level groups: (1) 64 patients on 250 mg/day therapy with DG-031 (250 mg q.d.), vs placebo; (2) 64 patients on 500 mg/day therapy with DG-031 (250 mg b.i.d.) vs placebo; and (3) 63 patients on 750 mg/day therapy with DG-031 (250 mg t.i.d.) vs placebo. […] All patients received 3 tablets per day. Treatment periods, 4 weeks in duration each, were separated by a 2-week washout period. The placebo tablets were identical in shape, color, form and taste to the active tablets except that they contained no active drug ingredients. Treatment with DG-031 or placebo was in addition to the subject's standard care, including all medications and treatment plan as prescribed by the subject's cardiologist prior to enrolment. A total of 191 subjects were enrolled, with 172 completing all 8 visits or 8 patients short of the target of 180 patients.
# The primary objective was to determine whether the FLAP inhibitor has a statistically significant effect, compared to placebo, on one or more biomarkers of MI risk, including: (1) ionomycin-induced LTB4 and MPO release by neutrophils ex vivo; (2) MPO, CRP, N-tyrosine, Lp-PLA2 or amyloid A in serum, or (3) LTE4 in urine. The secondary objective was to determine whether the effect of DG-031 was dose-dependent. The tertiary objective was to assess other biomarkers (See Results). Evaluation of safety and tolerability of the drug was also a primary endpoint.
# All data were analyzed according to a pre-established statistical analysis plan (SAP) and by intention-to-treat (ITT). Each arm of the study, as well as pooled sets (combining dose levels), was considered for the primary analysis. Each such set is an AB/BA cross-over design and in the primary analysis of efficacy, the levels of biomarkers of MI risk at the end of the treatment periods (visits 4 and 7) were used as primary response variables. The difference between DG-031 and placebo treatment was the primary outcome, assessed separately for each of the biomarkers. […]
# MPO = test: Study DG-031-203 open label dose ranging: plasma MPO; assay type: in vivo, human
# Protocol: The study also collected information on the dose-related effect of DG-031 on capacity for LTB4 production (ex vivo), plasma MPO, and serum-CRP. […] The pattern observed supported a concentration dependent pharmacologic effect of DG-031 on capacity for LTB4 production measured ex vivo. The effects on LTB4 production amounted to a 30% (p=0.016) and 25% (p=0.094) reduction with the 375 mg BID and 250 mg TID doses, respectively.
# [1] = Clinical studies, safety and tolerability in CAD patients; assay type: in vivo, human
# Protocol: Previous clinical studies administered the dosages of DG-031 either in a single dose (QD) or twice a day (BID)
# A total daily dose of 750 mg, dosed at 250 mg TID, provides a preferable PK/PD relationship (inhibition of LTB4) and efficacy in terms of lowering other biomarkers of MI risk (i.e. MPO and CRP).
# MMP-9 = test: Study DG-031-201: MMP 9; assay type: in vivo, human; conditions: difference visit 2 to visit 5; 500 and 750 mg/day vs placebo cohort
# Protocol: as §1
# All data were analyzed according to a pre-established statistical analysis plan (SAP) and by intention-to-treat (ITT). Each arm of the study, as well as pooled sets (combining dose levels), was considered for the primary analysis. […] The difference between DG-031 and placebo treatment was the primary outcome, assessed separately for each of the biomarkers. […]
# [2] = healthy volunteers, cited from earlier work
compound,measurement,setting,value
"O=C(O)[C@@H](c1ccc(OCc2ccc3ccccc3n2)cc1)C1CCCC1 [DG-031, (R)-(+)-alpha-cyclopentyl-4-(2-quinolinylmethoxy)-Benzeneacetic acid]","Carry-over effect, LTE4 in urine","LTE4 in urine; difference visit 2 to visit 5, 500 and 750 mg/day vs placebo cohort",−0.06
same,Increase of urine levels of LTE4,"LTE4 in urine; highest dose, [15%,40%], p<0.001",27%
same,Increase of urine levels of LTE4,"LTE4 in urine; pooled dose set 500 mg and 750 mg, [13%,30%]",21%
same,MPO in plasma,"MPO; 250 mg TID, St. 203, 6 hours, P < 0.001",−37% (St. 203)
same,Drop of plasma MPO levels,"MPO; 250 mg t.i.d., 6 hours after intake, [24%,47%], p<0.001",37%
same,MPO in plasma,"MPO; 375 mg BID, Study 203, 6 hours, NS",−24%
same,Lowering of plasma MPO levels,"MPO; 375 mg BID, p=0.067",24%
same,MPO in plasma,"MPO; 375 mg QD, Study 203, 6 hours",No effect
same,Safety and tolerability,"[1]; 250 mg QD, 375 mg QD, 250 mg BID, 375 mg BID and 250 mg TID",safe and well tolerated
same,Safety and tolerability,"[1]; total daily doses 375 mg and 750 mg, less than 8 days",safe and well tolerated
same,Safety and tolerability,"[1]; total daily doses 250, 500 and 750 mg, 128 days",safe and well tolerated
same,"Carry-over effect, MMP 9",MMP-9,−0.04
same,Safety and tolerability,"[2]; total daily dose 100, 200, 250, 300, 500, 750 and 1000 mg, less than 14 days",safe and well tolerated
same,Safety and tolerability,"[2]; total daily doses 500 mg and 1000 mg, 14-42 days",safe and well tolerated
